Data published in EP4768499A1, “MACROCYCLIC PEPTIDE COMPOUND HAVING CELL MEMBRANE PERMEABILITY AND METABOLIC STABILITY, AND LIBRARY CONTAINING SAME” (Chugai Seiyaku Kabushiki Kaisha, priority 2023, dated 2025).
Like-named read-outs stand apart in the source and are kept apart here. Starred links: 1 amine or outer side, 2 acyl side, 3 side chain; linkers in the order of their positions; H or OH if unused. Non-standard residues stand in square brackets, D forms with d. Residues, ends and D or L forms follow the SMILES beside them. *: point of attachment. NMedβ3hAla = C[C@H](CC(=O)[*:2])N(C)[*:1]; NMeF = CN[C@@H](Cc1ccccc1)C(=O)O; NMeGABA = CN(CCCC(=O)[*:2])[*:1]; NMeI = CC[C@H](C)[C@H](NC)C(=O)O; NMeT = CN[C@H](C(=O)O)[C@@H](C)O; hPhe = N[C@@H](CCc1ccccc1)C(=O)O; NMeβAla = CN(CCC(=O)[*:2])[*:1]; NMeL = CN[C@@H](CC(C)C)C(=O)O; NMeV = CN[C@H](C(=O)O)C(C)C; d(β3hA) = C[C@@H](N)CC(=O)O; NMeAbu = CC[C@H](NC)C(=O)O; NMeA = CN[C@@H](C)C(=O)O; dNMeA = CN[C@H](C)C(=O)O; Abu = CC[C@H](N)C(=O)O; βAla = NCCC(=O)O; Sar = CNCC(=O)O; tBu = CC(C)(C)*

How the values were obtained:
[1] = Membrane permeability test using Caco-2 cells with preincubation; format: in vitro ADME; conditions: Caco-2
Caco-2 cells = test: as above; format: in vitro ADME
[2] = Metabolic stability test: liver microsomal stability assay; format: in vitro ADME, mouse; conditions: for microsomal CLint at 1 µM: male, pH 7.4, presence of NADPH, read-out: Mouse Hepatic Microsome CLh,int NADPH(+)
[3] = preincubation 20 to 24 hours, Apical FaSSIF/HBSS pH 6.0, Basal HBSS 4% BSA pH 7.4, 180 minutes, read-out: Caco2 Papp
[4] = Caco-2 cells, preincubation 20 to 24 hours, apical FaSSIF/HBSS 1% DMSO pH 6.0, basal HBSS 4% BSA pH 7.4, basal sample at 180 minutes
[5] = mouse liver microsomes 0.5 mg protein/mL, compound 1 µM
[6] = mouse liver microsomes 0.5 mg protein/mL, compound 1 µM, absence of NADPH

Papp A→B [1, 3] [×10⁻⁶ cm/s]	Caco2 Papp (10^-6 cm/sec) (Caco-2 cells; [4])	microsomal CLint at 1 µM [2, 5] [µL/min/mg]	Mouse Hepatic Microsome CLh,int NADPH(-) [2, 6] [µL/min/mg Protein]	Papp A→B [1] [×10⁻⁶ cm/s]	Caco2 Papp (10^-6 cm/sec) (Caco-2 cells; Caco-2)	Mouse Hepatic Microsome CLh,int NADPH(-) [2] [µL/min/mg Protein]	SMILES
0.54	0.54 10^-6 cm/sec	13.2	15.9				CC[C@H](C)[C@@H]1NC(=O)[C@H](C)N(C)C(=O)[C@H]([C@@H](C)O)N(C)C(=O)[C@H](CC(C)C)N(C)C(=O)[C@H]([C@@H](C)CC)NC(=O)[C@H](Cc2ccccc2)N(C)C(=O)[C@H](Cc2ccccc2)N(C)C(=O)[C@H](C)NC(=O)[C@H](COC(C)(C)C)NC(=O)[C@H](CC)N(C)C(=O)[C@H](C(C)C)NC(=O)CCCN(C)C(=O)C[C@@H](C)NC(=O)[C@H](C(C)C)N(C)C1=O [pd050] (cyclo(A[NMeF][NMeF]I[NMeL][NMeT][NMeA]I[NMeV][d(β3hA)][NMeGABA]V[NMeAbu]S(tBu)))
1.01	1.01 10^-6 cm/sec	28	32.0				CC[C@H](C)[C@H]1C(=O)N[C@@H]([C@@H](C)O)C(=O)N(C)CC(=O)N(C)[C@@H](CC(C)C)C(=O)N[C@@H](CC(C)C)C(=O)N[C@H](C)CC(=O)N(C)[C@@H](C)C(=O)N[C@@H](CC(C)C)C(=O)N(C)[C@@H](C)C(=O)N(C)[C@@H](CC(C)C)C(=O)N[C@@H](COC(C)(C)C)C(=O)N(C)[C@@H](Cc2ccccc2)C(=O)N[C@@H](C(C)C)C(=O)N(C)[C@@H](CC(C)C)C(=O)N1C [pd052] (cyclo(L[NMeA][NMeL]S(tBu)[NMeF]V[NMeL][NMeI]T[Sar][NMeL]L[d(β3hA)][NMeA]))
1.64	1.64 10^-6 cm/sec	45.7	24.1				CC[C@@H]1NC(=O)[C@H](CC(C)C)N(C)C(=O)[C@H]([C@@H](C)CC)NC(=O)[C@H](CC(C)C)N(C)C(=O)C[C@@H](C)NC(=O)[C@H](C(C)C)N(C)C(=O)[C@H](CC(C)C)NC(=O)[C@H](CC)N(C)C(=O)[C@H](Cc2ccccc2)N(C)C(=O)[C@@H]2CCCN2C(=O)[C@H](CC(C)C)NC(=O)[C@H]([C@@H](C)O)N(C)C(=O)[C@H](C)NC(=O)[C@H](CC(C)C)N(C)C1=O [pd053] (cyclo(A[NMeT]LP[NMeF][NMeAbu]L[NMeV][d(β3hA)][NMeL]I[NMeL][Abu][NMeL]))
0.49	0.49 10^-6 cm/sec	32.5	25.1				CC[C@H](C)[C@@H]1NC(=O)[C@@H]2CCCN2C(=O)[C@H](C(C)C)N(C)C(=O)[C@H](CC(C)C)NC(=O)[C@@H](C)N(C)C(=O)C[C@@H](C)NC(=O)[C@H](C(C)C)N(C)C(=O)[C@H](Cc2ccccc2)N(C)C(=O)[C@H](COC(C)(C)C)NC(=O)[C@H](CC(C)C)N(C)C(=O)[C@H](C)N(C)C(=O)[C@H](CC(C)C)N(C)C(=O)[C@H]([C@@H](C)O)NC(=O)[C@H](Cc2ccccc2)N(C)C1=O [pd054] (cyclo(I[NMeF]T[NMeL][NMeA][NMeL]S(tBu)[NMeF][NMeV][d(β3hA)][dNMeA]L[NMeV]P))
0.12	0.12 10^-6 cm/sec	27.1	15.0				CC[C@@H]1NC(=O)[C@H](C)N(C)C(=O)[C@H](C(C)C)N(C)C(=O)[C@H]([C@@H](C)CC)NC(=O)[C@H](C)N(C)C(=O)CCCN(C)C(=O)C[C@@H](C)NC(=O)[C@H](C(C)C)N(C)C(=O)[C@H](CCc2ccccc2)NC(=O)CCN(C)C(=O)[C@H]([C@@H](C)O)N(C)C(=O)[C@H](CC(C)C)N(C)C(=O)[C@H]([C@@H](C)CC)NC(=O)[C@H](Cc2ccccc2)N(C)C1=O [pd055] (cyclo([Abu][NMeF]I[NMeL][NMeT][NMeβAla][hPhe][NMeV][d(β3hA)][NMeGABA][NMeA]I[NMeV][NMeA]))
0.27	0.27 10^-6 cm/sec	55.9	30.2				CC[C@H](C)[C@@H]1NC(=O)[C@H](CC(C)C)N(C)C(=O)[C@H](CC(C)C)NC(=O)[C@H](C)N(C)C(=O)[C@H](Cc2ccccc2)N(C)C(=O)[C@@H]2CCCN2C(=O)[C@H](CC(C)C)N(C)C(=O)[C@H](CCc2ccccc2)NC(=O)CCN(C)C(=O)C[C@@H](C)NC(=O)[C@H](CC(C)C)N(C)C(=O)[C@H]([C@@H](C)O)NC(=O)[C@H](C)N(C)C(=O)[C@H](C(C)C)N(C)C1=O [pd056] (cyclo(I[NMeV][NMeA]T[NMeL][d(β3hA)][NMeβAla][hPhe][NMeL]P[NMeF][NMeA]L[NMeL]))
0.72	0.72 10^-6 cm/sec	16.3	14.8				CC[C@H]1C(=O)N[C@@H](COC(C)(C)C)C(=O)N(C)[C@@H](Cc2ccccc2)C(=O)N(C)[C@@H](C(C)C)C(=O)N[C@H](C)CC(=O)N(C)[C@H](C)C(=O)N(C)[C@@H](CC(C)C)C(=O)N(C)[C@@H](C(C)C)C(=O)N2CCC[C@H]2C(=O)N[C@@H](C(C)C)C(=O)N(C)[C@@H](Cc2ccccc2)C(=O)N[C@@H]([C@@H](C)O)C(=O)N(C)[C@@H](CC(C)C)C(=O)N(C)[C@@H](C)C(=O)N1C [pd058] (cyclo([NMeA][NMeAbu]S(tBu)[NMeF][NMeV][d(β3hA)][dNMeA][NMeL][NMeV]PV[NMeF]T[NMeL]))
0.52	0.52 10^-6 cm/sec	12.7	18.6				CC[C@H](C)[C@@H]1NC(=O)[C@H](C)N(C)C(=O)CCCN(C)C(=O)C[C@@H](C)NC(=O)[C@H](C(C)C)N(C)C(=O)[C@H](CC(C)C)N(C)C(=O)[C@H](C)N(C)C(=O)[C@H]([C@@H](C)O)N(C)C(=O)[C@H](CCc2ccccc2)NC(=O)[C@H](C(C)C)NC(=O)[C@H](Cc2ccccc2)N(C)C(=O)[C@H](CC)N(C)C(=O)[C@H](C)N(C)C(=O)[C@H](C(C)C)N(C)C1=O [pd059] (cyclo(I[NMeV][NMeA][NMeAbu][NMeF]V[hPhe][NMeT][NMeA][NMeL][NMeV][d(β3hA)][NMeGABA][NMeA]))
0.51	0.51 10^-6 cm/sec	39	39.7				CC[C@H](C)[C@@H]1NC(=O)[C@H](CC(C)C)N(C)C(=O)C[C@@H](C)NC(=O)[C@H](C(C)C)N(C)C(=O)[C@H](COC(C)(C)C)NC(=O)[C@H](CC)N(C)C(=O)[C@H](Cc2ccccc2)N(C)C(=O)[C@H](CC(C)C)NC(=O)[C@@H]2CCCN2C(=O)[C@H]([C@@H](C)O)N(C)C(=O)[C@H](CC(C)C)N(C)C(=O)[C@H](CC)N(C)C(=O)[C@H](C(C)C)N(C)C(=O)[C@H](CC(C)C)N(C)C1=O [pd061] (cyclo(I[NMeL][NMeV][NMeAbu][NMeL][NMeT]PL[NMeF][NMeAbu]S(tBu)[NMeV][d(β3hA)][NMeL]))
				< 0.11	<0.11 10^-6 cm/sec	24.1	CC[C@@H]1NC(=O)[C@H](CC(C)C)N(C)C(=O)CCNC(=O)[C@H](Cc2ccccc2)N(C)C(=O)[C@H](Cc2ccccc2)N(C)C(=O)CNC(=O)[C@H]([C@@H](C)CC)NC(=O)[C@H](CC(C)C)N(C)C(=O)CCCN(C)C(=O)C[C@@H](C)N(C)C(=O)[C@H](CC(C)C)NC(=O)[C@H]([C@@H](C)CC)NC(=O)[C@H](C)N(C)C(=O)[C@H](C(C)C)NC1=O [pd062] (cyclo([Abu]V[NMeA]IL[NMedβ3hAla][NMeGABA][NMeL]IG[NMeF][NMeF][βAla][NMeL]))
0.03	0.03 10^-6 cm/sec	47.5	33.7				CC[C@@H]1NC(=O)[C@H](CC(C)C)N(C)C(=O)[C@H](COC(C)(C)C)NC(=O)[C@H]([C@@H](C)CC)NC(=O)[C@H](Cc2ccccc2)N(C)C(=O)CNC(=O)[C@H]([C@@H](C)CC)NC(=O)[C@H](CC(C)C)N(C)C(=O)CCCN(C)C(=O)C[C@@H](C)N(C)C(=O)[C@H](CC(C)C)NC(=O)[C@H](C)N(C)C(=O)[C@H](Cc2ccccc2)N(C)C(=O)[C@H](C(C)C)NC1=O [pd063] (cyclo([Abu]V[NMeF][NMeA]L[NMedβ3hAla][NMeGABA][NMeL]IG[NMeF]IS(tBu)[NMeL]))
0.04	0.04 10^-6 cm/sec	41.4	43.3				CC[C@@H]1NC(=O)[C@H](C(C)C)NC(=O)[C@H]([C@@H](C)CC)N(C)C(=O)[C@H](CCc2ccccc2)NC(=O)[C@H](Cc2ccccc2)N(C)C(=O)[C@H]([C@@H](C)CC)NC(=O)[C@H](CC(C)C)N(C)C(=O)[C@H](CC(C)C)NC(=O)CCN(C)C(=O)C[C@@H](C)N(C)C(=O)[C@H](CC(C)C)N(C)C(=O)CNC(=O)[C@@H]2CCCN2C(=O)[C@H](CC(C)C)N(C)C1=O [pd064] (cyclo([Abu][NMeL]PG[NMeL][NMedβ3hAla][NMeβAla]L[NMeL]I[NMeF][hPhe][NMeI]V))
0.33	0.33 10^-6 cm/sec	38.9	36.4				CC[C@@H]1NC(=O)[C@H](CC(C)C)N(C)C(=O)[C@H](COC(C)(C)C)NC(=O)[C@H]([C@@H](C)CC)N(C)C(=O)[C@H](CCc2ccccc2)NC(=O)[C@H](Cc2ccccc2)N(C)C(=O)[C@H]([C@@H](C)CC)NC(=O)[C@H](CC(C)C)N(C)C(=O)[C@H](CC(C)C)N(C)C(=O)CCN(C)C(=O)C[C@@H](C)N(C)C(=O)CN(C)C(=O)[C@H](CC(C)C)N(C)C(=O)[C@@H]2CCCN2C1=O [pd066] (cyclo([Abu]P[NMeL][Sar][NMedβ3hAla][NMeβAla][NMeL][NMeL]I[NMeF][hPhe][NMeI]S(tBu)[NMeL]))
